{"source": "patent US10517889B2", "about": "“Modulators of SMAD7 expression” (Ionis Pharmaceuticals, Inc., priority 2017, dated 2019)", "key": {"human SMAD7 mRNA [1]": {"system": "human SMAD7 mRNA", "assay": "Antisense inhibition of human SMAD7 mRNA expression in Hep3B cells by 3-10-3 cEt gapmers, 10,000 nM, electroporation (Example 2)", "assay_type": "cell-based", "settings": "approximately 24 hours", "outline": "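Hep3B cells (20,000/well) were electroporated with 10,000 nM 3-10-3 cEt gapmer (16-mer, phosphorothioate, 5-methylcytosines) and harvested after about 24 h. SMAD7 mRNA quantified by RT-qPCR with primer probe set RTS5062, normalized to total RNA by RiboGreen; percent inhibition relative to untreated cells.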"}, "[2]": {"assay": "Plasma chemistry markers after subcutaneous administration in CD-1 mice (Example 6)", "assay_type": "in vivo", "settings": "CD-1 mice plasma at day 46; 50 mg/kg subcutaneously twice a week for 7 weeks", "experimental": "CD-1® mice (Charles River, Mass.) are a multipurpose mice model, frequently utilized for safety and efficacy testing. The mice were treated with Ionis human SMAD7 antisense oligonucleotides selected from studies described above and evaluated.\nGroups of 8-9 week old male CD-1 mice were injected subcutaneously twice a week for 7 weeks with 50 mg/kg of Ionis oligonucleotides (100 mg/kg/week dose). Each group contained 4 mice. One group of male CD-1 mice was injected subcutaneously twice a week for 7 weeks with PBS. […]"}, "[3]": {"assay": "Organ weights after subcutaneous administration in CD-1 mice (Example 6)", "assay_type": "in vivo", "settings": "end of study, 50 mg/kg subcutaneously twice a week for 7 weeks", "experimental": "(§1) Groups of 8-9 week old male CD-1 mice were injected subcutaneously twice a week for 7 weeks with 50 mg/kg of Ionis oligonucleotides (100 mg/kg/week dose). Each group contained 4 mice. One group of male CD-1 mice was injected subcutaneously twice a week for 7 weeks with PBS. Plasma was collected for analysis on day 28.\nIonis SMAD7 oligonucleotides that caused any changes in organ weights outside the expected range for antisense oligonucleotides were excluded from further studies."}, "[4]": {"assay": "Hematology assays after subcutaneous administration in CD-1 mice (Example 6)", "assay_type": "in vivo", "parameters": "RBC / Eosinophils / Monocytes: unit not given here", "settings": "50 mg/kg subcutaneous twice weekly for 7 weeks", "experimental": "as §1\nBlood obtained from all mouse groups was measured by an ADVIA2120i hematology analyzer (Siemens, USA) for measurements of the various blood cells, as well as other hematology markers."}, "human SMAD7 mRNA [5]": {"system": "human SMAD7 mRNA", "assay": "Dose-dependent inhibition of human SMAD7 mRNA expression in Hep3B cells, comparison with ION 28453 (Example 4)", "assay_type": "cell-based", "settings": "electroporation, approximately 16 hours", "experimental": "Cells were plated at a density of 20,000 cells per well and transfected using electroporation with 0.25 μM, 0.74 μM, 2.22 μM, 6.67 μM, or 20.00 μM concentrations of antisense oligonucleotide, as specified in the Tables below. After a treatment period of approximately 16 hours, RNA was isolated from the cells and SMAD7 mRNA levels were measured by quantitative real-time PCR. Primer probe set RTS5062 was used to measure human SMAD7 mRNA levels. SMAD7 mRNA levels were adjusted according to total RNA content, as measured by RIBOGREEN®. Results are presented as percent inhibition of SMAD7 mRNa expression, relative to untreated control cells.\nThe half maximal inhibitory concentration (IC50) of each oligonucleotide is also presented. […] Several newly designed antisense oligonucleotides had greater potency than the previously disclosed lead compound, ION 28453."}, "mouse Smad7 mRNA [6]": {"system": "mouse Smad7 mRNA", "assay": "Murine Smad7 mRNA expression after subcutaneous administration in BALB/c mice (Example 10)", "assay_type": "in vivo", "settings": "50 mg/kg subcutaneous once a week for 4 weeks, 24 hours after last dose", "experimental": "The objective of this study was to evaluate the efficacy of Ionis SMAD7 antisense oligonucleotides compared to ION 736697/Mongersen in BALB/c mice following 4 weeks of treatment. Both ION 830025 and ION 798781 are cross-reactive with mouse Smad7 mRNA.\nGroups of BALB/c mice were subcutaneously administered 50 mg/kg of Ionis SMAD7 oligonucleotides once a week for 4 weeks. Each group contained 4 mice. One group of mice was administered PBS once a week for 4 weeks. […]"}, "mouse Smad7 mRNA [7]": {"system": "mouse Smad7 mRNA", "assay": "Murine Smad7 mRNA expression after oral administration in BALB/c mice (Example 11)", "assay_type": "in vivo", "settings": "500 mg/kg/day oral for 3 weeks, 24 hours after last dose", "experimental": "The objective of this study was to evaluate the efficacy of Ionis SMAD7 antisense oligonucleotides in BALB/c mice following daily oral administration. The Ionis oligonucleotides are cross-reactive with mouse Smad7 mRNA.\nGroups of BALB/c mice were orally administered 500 mg/kg/day for 3 weeks of human Smad7 oligonucleotides, ION 790615, ION 798781, or ION 830025, or mouse Smad7 oligonucleotide, ION 772797 (a 3-10-3 cEt gapmer with phosphorothioate backbone and sequence […]; designated herein as SEQ ID NO: 2743). One group of mice was orally administered PBS daily for 3 weeks. Each group contained 4 mice.\nTo evaluate the efficacy of the oligonucleotides, murine Smad7 mRNA expression in the liver, kidneys, duodenum, ileum, and colon was measured using primer probe set RTS1114."}}, "note": "Strand notation (5' to 3'): a small letter for the sugar, then the base; units joined by * are phosphorothioate-linked, units joined directly phosphodiester-linked; [ ] holds rarer units or linkages, { } end groups; capitals alone tell only the bases. k = constrained ethyl (cEt); [5mC] = 5-methylcytosine; d = 2'-deoxy (DNA)", "data": [{"substance": "830027 (antisense kA*kA*k[5mC]*d[5mC]*dA*dT*dT*dT*dA*dT*d[5mC]*dT*dG*kG*kT*kG) [compound 830027]", "values": [{"measurement": "% Inhibition", "setting": "human SMAD7 mRNA [1]; Hep3B cells, electroporation with 10,000 nM antisense oligonucleotide, SMAD7 mRNA by RT-PCR (RTS5062), relative to untreated control cells", "result": 23, "unit": "%"}, {"measurement": "ALT", "setting": "[2]", "result": 40, "unit": "IU/L"}, {"measurement": "AST", "setting": "[2]", "result": 104, "unit": "IU/L"}, {"measurement": "Albumin", "setting": "[2]", "result": 2.5, "unit": "g/dL"}, {"measurement": "BUN", "setting": "[2]", "result": 23, "unit": "mg/dL"}, {"measurement": "Organ weights, Kidneys", "setting": "[3]", "result": 0.6, "unit": "g"}, {"measurement": "Organ weights, Liver", "setting": "[3]", "result": 2.6, "unit": "g"}, {"measurement": "Organ weights, Spleen", "setting": "[3]", "result": 0.2, "unit": "g"}, {"measurement": "Eosinophils", "setting": "[4]", "result": 1.9}, {"measurement": "Hematocrit", "setting": "[4]", "result": 44.7, "unit": "%"}, {"measurement": "Hemoglobin", "setting": "[4]", "result": 14.7, "unit": "g/dL"}, {"measurement": "Lymphocytes", "setting": "[4]", "result": 64.4, "unit": "%"}, {"measurement": "MCH", "setting": "[4]", "result": 15.1, "unit": "pg"}, {"measurement": "MCHC", "setting": "[4]", "result": 32.9, "unit": "g/dL"}, {"measurement": "MCV", "setting": "[4]", "result": 46.3, "unit": "fL"}, {"measurement": "Monocytes", "setting": "[4]", "result": 8.2}, {"measurement": "Neutrophils", "setting": "[4]", "result": 25.6, "unit": "%"}, {"measurement": "RBC", "setting": "[4]", "result": 9.7}, {"measurement": "Reticulocytes", "setting": "[4]", "result": 3.4, "unit": "%"}, {"measurement": "WBC", "setting": "[4]", "result": "8.6 10^3/μL"}, {"measurement": "platelets", "setting": "[4]", "result": "1141.8 10^3/μL"}]}, {"substance": "799184 (antisense kA*kA*k[5mC]*d[5mC]*dT*dT*dT*dG*dT*dA*dG*dT*dT*kA*kG*kA) [compound 799184]", "values": [{"measurement": "% inhibition of SMAD7 mRNA expression", "setting": "human SMAD7 mRNA [1]; Hep3B cells, electroporation with 10,000 nM antisense oligonucleotide, primer probe set RTS5062, relative to untreated control cells", "result": 58, "unit": "%"}, {"measurement": "% Inhibition", "setting": "human SMAD7 mRNA [1]; SMAD7 mRNA, Hep3B cells, 10,000 nM antisense oligonucleotide, electroporation, primer probe set RTS5062, relative to untreated control cells", "result": 48, "unit": "%"}, {"measurement": "% inhibition of SMAD7 mRNA expression", "setting": "human SMAD7 mRNA [5]; 0.25 μM", "result": 0, "unit": "%"}, {"measurement": "% inhibition of SMAD7 mRNA expression", "setting": "human SMAD7 mRNA [5]; 0.74 μM", "result": 10, "unit": "%"}, {"measurement": "% inhibition of SMAD7 mRNA expression", "setting": "human SMAD7 mRNA [5]; 2.22 μM", "result": 18, "unit": "%"}, {"measurement": "% inhibition of SMAD7 mRNA expression", "setting": "human SMAD7 mRNA [5]; 6.67 μM", "result": 51, "unit": "%"}, {"measurement": "% inhibition of SMAD7 mRNA expression", "setting": "human SMAD7 mRNA [5]; 20.00 μM", "result": 78, "unit": "%"}, {"measurement": "IC50", "setting": "human SMAD7 mRNA [5]; SMAD7 mRNA", "result": 6, "unit": "µM"}]}, {"substance": "ION 736697: uniform deoxy phosphorothioate oligonucleotide GTCGCCCCTTCTCCCCGCAGC (SEQ ID NO: 2736), same sequence and chemistry as GED-0301 (Mongersen) (DNA, all phosphorothioate, methylation of C not given here) [reference compound]", "values": [{"measurement": "Mouse Smad7 mRNA expression (% inhibition), Colon", "setting": "mouse Smad7 mRNA [6]; colon", "result": 3, "unit": "% inhibition"}, {"measurement": "Mouse Smad7 mRNA expression (% inhibition), Duodenum", "setting": "mouse Smad7 mRNA [6]; duodenum", "result": 0, "unit": "% inhibition"}, {"measurement": "Mouse Smad7 mRNA expression (% inhibition), Ileum", "setting": "mouse Smad7 mRNA [6]; ileum", "result": 0, "unit": "% inhibition"}, {"measurement": "Mouse Smad7 mRNA expression (% inhibition), Kidney", "setting": "mouse Smad7 mRNA [6]; kidney", "result": 9, "unit": "% inhibition"}, {"measurement": "Mouse Smad7 mRNA expression (% inhibition), Liver", "setting": "mouse Smad7 mRNA [6]; liver", "result": 6, "unit": "% inhibition"}]}, {"substance": "772797 (AATGAACTGTATCTCC; sugars from the 5' end k3 d10 k3, all phosphorothioate, methylation of C not given here) [compound 772797]", "values": [{"measurement": "Mouse Smad7 mRNA expression (% inhibition), Colon", "setting": "mouse Smad7 mRNA [7]; colon", "result": 1, "unit": "% inhibition"}, {"measurement": "Mouse Smad7 mRNA expression (% inhibition), Duodenum", "setting": "mouse Smad7 mRNA [7]; duodenum", "result": 36, "unit": "% inhibition"}, {"measurement": "Mouse Smad7 mRNA expression (% inhibition), Ileum", "setting": "mouse Smad7 mRNA [7]; ileum", "result": 8, "unit": "% inhibition"}, {"measurement": "Mouse Smad7 mRNA expression (% inhibition), Kidney", "setting": "mouse Smad7 mRNA [7]; kidney", "result": 0, "unit": "% inhibition"}, {"measurement": "Mouse Smad7 mRNA expression (% inhibition), Liver", "setting": "mouse Smad7 mRNA [7]; liver", "result": 7, "unit": "% inhibition"}]}]}
